Results published in US20110217715A1, “GENE EXPRESSION IN DUCHENNE MUSCULAR DYSTROPHY” (CHILDREN'S HOSPITAL MEDICAL CENTER, priority 2008, published 2011).

System: mRNA expression in peripheral blood of individuals with DMD
Assay: Whole-blood gene expression microarray: DMD administered deflazacort vs DMD administered prednisone
Assay type: in vivo, human
Conditions: for p-value / p-value (t-test, deflazacort vs. prednisone) / p-value (t-test, deflazacort vs prednisone): deflazacort vs. prednisone
Protocol: Fifteen ml of blood was collected from each individual into 6 PAXgene® Vacutainer® tubes (PreAnalytiX, Germany) by antecubital fossa venipuncture. PAXgene® tubes contain a proprietary reagent that immediately stabilizes RNA, thus reducing RNA degradation and minimizing gene expression changes following phlebotomy. The tubes were then inverted 20 times, then remained undisturbed for 2 h at room temperature (about 19° C. to about 22° C.), and then stored at -70° C. until processed. Total RNA was isolated using the Paxgene® blood RNA kit (PreAnalytiX, Germany) according to the manufacturers instructions. The RNA isolated is from all cells in whole blood. Typical yields of total RNA isolated from about 7.5 ml of human whole blood were between 10 μg RNA and 40 μg RNA. RNA quality and purity was analyzed by spectrophotometry using the Nanodrop ND-1000, and RNA integrity was analyzed using the Agilent 2100 Bioanalyzer. […] Sample labeling, hybridization to chips, and image scanning were performed using standard Affymetrix protocols. For each whole blood sample from control individuals and individuals with DMD, total RNA was labeled using the One-Cycle Target Labeling protocol and hybridized to the arrays. […] Double-stranded cDNA synthesis, biotin-labeled cRNA synthesis, and cRNA fragmentation were performed according to the Affymetrix GeneChip Eukaryotic Expression Analysis protocol. The labeled, fragmented cRNA (15 μg) was hybridized at 45° C. overnight. After hybridization, the array was washed and stained. The arrays were scanned with an argon-ion laser at λ=570 nm, with a resolution of 3 μm/pixel (Affymetrix, Inc.). After scanning the array, the raw probe level values for each probe were saved in Affymetrix.cel files. […] Statistical analyses, including t-test analyses, unsupervised hierarchical clustering, and principal component analyses were conducted using Genespring 7.2 software ([…]® 7, Silicon Genetics, Redwood City Calif.). […] Corrections for multiple comparisons used a Benjamini-Hochberg False Discovery Rate (FDR) of 0.05, disclosed in Tang et al., J Cereb Blood Flow Metab 26 (2006) 1089, which is expressly incorporated by reference herein in its entirety. […] Sample processing and array hybridization, probe-level data analysis, and statistical analysis were identical to Example 1.

Q: For `CC(=O)OCC(=O)[C@@]12N=C(C)O[C@@H]1C[C@H]1[C@@H]3CCC4=CC(=O)C=C[C@]4(C)[C@H]3[C@@H](O)C[C@@]12C` [deflazacort], which “expression of retinoic acid receptor α (RARa)” value (deflazacort compared to prednisone, blood) is on record?
A: Its value is “significantly up-regulated”.

Q: And the p-value (AA100891, Nucleic Acid No. 2100)?
A: The p-value was 0.0498.

Q: What about the p-value (AA534416, Nucleic Acid No. 2105) of the same compound?
A: Its p-value is 0.0123.

Q: And the “p-value (t-test, deflazacort vs. prednisone)” value (AA679303, Nucleic Acid No. 2067)?
A: The value was 0.0185.

Q: What about the p-value (AA702409, Nucleic Acid No. 2116) of the same compound?
A: Its p-value is 0.0453.

Q: And the “p-value (t-test, deflazacort vs. prednisone)” value (AA789296, Nucleic Acid No. 2010)?
A: Its value is 0.0291.

Q: And the “p-value (t-test, deflazacort vs. prednisone)” value (AA830854, Nucleic Acid No. 1325)?
A: Its value is 0.0452.

Q: What about the “p-value (t-test, deflazacort vs prednisone)” value (AB023216, Nucleic Acid No. 2081) of the same compound?
A: The value was 0.00521.

Q: And the “p-value (t-test, deflazacort vs prednisone)” value (AB033106, Nucleic Acid No. 2083)?
A: The value was 0.0446.

Q: What about the p-value (AF005774, Nucleic Acid No. 1945) of the same compound?
A: Its p-value is 0.0104.

Q: And the p-value (AF009616, Nucleic Acid No. 1950)?
A: The p-value was 0.0293.

Q: And the p-value (AF009619, Nucleic Acid No. 1943)?
A: The p-value was 0.0064.

Q: What about the p-value (AF015451, Nucleic Acid No. 1946) of the same compound?
A: Its p-value is 0.0107.

Q: What about the p-value (AF041459, Nucleic Acid No. 1944) of the same compound?
A: The p-value was 0.00822.

Q: What about the p-value (AF041461, Nucleic Acid No. 1947) of the same compound?
A: Its p-value is 0.013.

Q: What about the p-value (AF075067, Nucleic Acid No. 2112) of the same compound?
A: Its p-value is 0.0376.

Q: What about the p-value (AF083208, Nucleic Acid No. 1892) of the same compound?
A: Its p-value is 0.00348.

Q: What about the “p-value (t-test, deflazacort vs prednisone)” value (AF098114, Nucleic Acid No. 2069) of the same compound?
A: The value was 0.0202.

Q: And the p-value (AF147300, Nucleic Acid No. 1995)?
A: Its p-value is 0.0271.

Q: What about the “p-value (t-test, deflazacort vs prednisone)” value (AF207547, Nucleic Acid No. 2088) of the same compound?
A: Its value is 0.00744.

Q: What about the p-value (AF285167, Nucleic Acid No. 1894) of the same compound?
A: The p-value was 0.0117.

Q: What about the p-value (AF313468, Nucleic Acid No. 1956) of the same compound?
A: The p-value was 0.0435.

Q: And the p-value (AF400600, Nucleic Acid No. 1955)?
A: Its p-value is 0.0263.

Q: And the p-value (AF400602, Nucleic Acid No. 1954)?
A: The p-value was 0.0148.

Q: What about the “p-value (t-test, deflazacort vs prednisone)” value (AF499918, Nucleic Acid No. 2091) of the same compound?
A: Its value is 0.0369.

Q: What about the “p-value (t-test, deflazacort vs. prednisone)” value (AI017983, Nucleic Acid No. 1338) of the same compound?
A: The value was 0.0323.

Q: And the “p-value (t-test, deflazacort vs. prednisone)” value (AI056689, Nucleic Acid No. 2031)?
A: The value was 0.043.

Q: And the “p-value (t-test, deflazacort vs prednisone)” value (AI080505, Nucleic Acid No. 2099)?
A: Its value is 0.0412.

Q: And the p-value (AI091372, Nucleic Acid No. 1918)?
A: Its p-value is 0.00592.

Q: And the p-value (AI093231, Nucleic Acid No. 1906)?
A: Its p-value is 0.0085.

Q: And the “p-value (t-test, deflazacort vs. prednisone)” value (AI250910, Nucleic Acid No. 2014)?
A: The value was 0.0029.

Q: And the p-value (AI342146, Nucleic Acid No. 1905)?
A: The p-value was 0.048.

Q: And the “p-value (t-test, deflazacort vs. prednisone)” value (AI393727, Nucleic Acid No. 2034)?
A: The value was 0.0345.

Q: And the p-value (AI436803, Nucleic Acid No. 1916)?
A: Its p-value is 0.00828.

Q: What about the “p-value (t-test, deflazacort vs prednisone)” value (AI535735, Nucleic Acid No. 2089) of the same compound?
A: The value was 0.0426.

Q: And the “p-value (t-test, deflazacort vs. prednisone)” value (AI608725, Nucleic Acid No. 2053)?
A: Its value is 6.16E−05.

Q: What about the p-value (AI651726, Nucleic Acid No. 2119) of the same compound?
A: The p-value was 0.0107.

Q: And the p-value (AI670862, Nucleic Acid No. 2017)?
A: The p-value was 0.0109.

Q: And the “p-value (t-test, deflazacort vs. prednisone)” value (AI719730, Nucleic Acid No. 2039)?
A: Its value is 0.00281.

Q: And the p-value (AI762695, Nucleic Acid No. 1996)?
A: The p-value was 0.032.

Q: What about the p-value (AI768497, Nucleic Acid No. 1910) of the same compound?
A: Its p-value is 0.0137.

Q: What about the “p-value (t-test, deflazacort vs prednisone)” value (AI814925, Nucleic Acid No. 2072) of the same compound?
A: Its value is 0.0422.

Q: What about the “p-value (t-test, deflazacort vs prednisone)” value (AI830331, Nucleic Acid No. 2075) of the same compound?
A: Its value is 0.0149.

Q: And the “p-value (t-test, deflazacort vs. prednisone)” value (AI830490, Nucleic Acid No. 2028)?
A: The value was 0.0146.

Q: What about the p-value (AI860150, Nucleic Acid No. 2018) of the same compound?
A: The p-value was 0.026.

Q: And the p-value (AI862537, Nucleic Acid No. 2118)?
A: The p-value was 0.0333.

Q: And the “p-value (t-test, deflazacort vs. prednisone)” value (AI868267, Nucleic Acid No. 1444)?
A: Its value is 0.0285.

Q: What about the “p-value (t-test, deflazacort vs. prednisone)” value (AI906424, Nucleic Acid No. 2044) of the same compound?
A: Its value is 0.0287.

Q: What about the “p-value (t-test, deflazacort vs. prednisone)” value (AI926544, Nucleic Acid No. 2054) of the same compound?
A: The value was 0.0136.

Q: What about the p-value (AI985590, Nucleic Acid No. 1901) of the same compound?
A: Its p-value is 0.0389.

Q: And the p-value (AJ422148, Nucleic Acid No. 2104)?
A: Its p-value is 0.026.

Q: And the p-value (AK000119, Nucleic Acid No. 2121)?
A: Its p-value is 0.0375.

Q: What about the “p-value (t-test, deflazacort vs. prednisone)” value (AK023348, Nucleic Acid No. 2037) of the same compound?
A: Its value is 0.0274.

Q: And the p-value (AK024677, Nucleic Acid No. 1915)?
A: Its p-value is 0.00386.

Q: What about the “p-value (t-test, deflazacort vs. prednisone)” value (AK024911, Nucleic Acid No. 2045) of the same compound?
A: The value was 0.0429.

Q: And the p-value (AK025217, Nucleic Acid No. 1997)?
A: Its p-value is 0.0404.

Q: And the “p-value (t-test, deflazacort vs. prednisone)” value (AK074686, Nucleic Acid No. 2042)?
A: The value was 0.0406.

Q: And the p-value (AK090660, Nucleic Acid No. 2080)?
A: Its p-value is 0.0288.

Q: And the “p-value (t-test, deflazacort vs. prednisone)” value (AK092709, Nucleic Acid No. 2013)?
A: The value was 0.0392.

Q: And the p-value (AL021977, Nucleic Acid No. 2110)?
A: Its p-value is 0.0121.

Q: And the p-value (AL049250, Nucleic Acid No. 2101)?
A: Its p-value is 0.0486.

Q: And the “p-value (t-test, deflazacort vs. prednisone)” value (AL049273, Nucleic Acid No. 1402)?
A: Its value is 0.0448.

Q: What about the “p-value (t-test, deflazacort vs prednisone)” value (AL137645, Nucleic Acid No. 906) of the same compound?
A: Its value is 0.0416.

Q: And the “p-value (t-test, deflazacort vs. prednisone)” value (AL832727, Nucleic Acid No. 2022)?
A: Its value is 0.0334.

Q: And the p-value (AL833448, Nucleic Acid No. 2084)?
A: The p-value was 0.0326.

Q: What about the p-value (AU145206, Nucleic Acid No. 1909) of the same compound?
A: The p-value was 0.046.

Q: And the p-value (AU158358, Nucleic Acid No. 1897)?
A: Its p-value is 0.0325.
